Blank lines part the entries; values can stand above or below the compound they belong to.
Tests used:
[1] = Determination of the log P values by HPLC (formic acid method); type: physicochemical; conditions: reversed-phase column (C 18), acidic range (pH 3.4), 55° C.
Protocol: 1) Description of Method for Determination of the Log P Values (Formic Acid Method)
Eluents for determination in the acidic range (pH 3.4):
Eluent A: acetonitrile+1 ml of formic acid/liter. Eluent B: water+0.9 ml of formic acid/liter.
The lambda max values were determined in the maxima of the chromatographic signals using the UV spectra from 200 nm to 400 nm.

spider mites = assay: spider mite test, efficacy in % after 6 days; type: in vivo; conditions: 100% = all spider mites killed, 0% = none killed
Protocol: After 6 days, the efficacy in % is determined. 100% means that all of the spider mites have been killed; 0% means that none of the spider mites have been killed.

Boophilus microplus = Boophilus microplus test (DIP); type: in vivo; conditions: application rate 100 ppm, after 7 days by laying of fertile eggs, 100% = no fertile eggs
Protocol: Boophilus microplus Test (DIP)
Test animals: adult engorged Boophilus microplus females of the SP-resistant Parkhurst strain
(§1) Solvent: dimethyl sulphoxide
10 mg of active compound are dissolved in 0.5 ml of dimethyl sulphoxide. For the purpose of preparing a suitable formulation, the active compound solution is diluted with water to the concentration desired in each case.
This active compound preparation is pipetted into tubes. 8-10 ticks are transferred into a further tube with holes. The tube is immersed into the active compound formulation, and all ticks are completely wetted. After the liquid has run out, the ticks are transferred onto filter discs in plastic dishes and stored in a climate-controlled room.
The activity is assessed after 7 days by laying of fertile eggs. Eggs whose fertility is not visible from the outside are stored in a climate-controlled cabinet until the larvae hatch. An efficacy of 100% means that none of the ticks has laid any fertile eggs.

Meloidogyne incognita = Meloidogyne incognita test (MELGIN); type: in vivo; conditions: application rate 20 ppm, lettuce in sand, after 14 days; for pest or weed control at 20 ppm: Meloidogyne incognita, 336 h, read-out: nematicidal effect (formation of galls)
Protocol: Meloidogyne incognita Test (MELGIN)
Solvent: 125.0 parts by weight of acetone
To prepare a suitable active compound preparation, 1 part by weight of active compound is mixed with the stated amount of solvent and the concentrate is diluted with water to the desired concentration.
Vessels are filled with sand, active compound solution, an egg/larvae suspension of the root-knot nematode (Meloidogyne incognita) and lettuce seeds. The lettuce seeds germinate and the plants develop. On the roots, galls are formed.
After 14 days, the nematicidal effect in % is determined by the formation of galls. 100% means that no galls have been found; 0% means that the number of galls on the treated plants corresponds to the untreated control.

Phaedon cochleariae = Phaedon cochleariae spray test (PHAECO); type: in vivo; conditions: foliar, 168 h, application rate 500 g/ha, larvae on Chinese cabbage leaf discs, after 7 days, read-out: efficacy
Protocol: Phaedon cochleariae Spray Test (PHAECO)
Solvents: 78.0 parts by weight of acetone • • 1.5 parts by weight of dimethylformamide
Emulsifier: 0.5 part by weight of alkylaryl polyglycol ether
To produce a suitable preparation of active compound, 1 part by weight of active compound is mixed with the stated amounts of solvents and emulsifier, and the concentrate is diluted with emulsifier-containing water to the desired concentration.
After 7 days, the efficacy in % is determined. 100% means that all of the beetle larvae have been killed; 0% means that none of the beetle larvae have been killed.

Cooperia curticei = Cooperia curticei test (COOPCU); type: in vivo; conditions: for efficacy (kill): nematode larvae, after 5 days
Protocol: Cooperia curticei Test (COOPCU)
as §1
To produce a suitable preparation of active compound, 10 mg of active compound are mixed with 0.5 ml of dimethyl sulphoxide, and the concentrate is diluted with Ringer solution to the desired concentration.
Vessels containing the active compound preparation of the desired concentration are populated with about 40 nematode larvae (Cooperia curticei).
After 5 days, the kill in % is determined 100% means that all of the larvae have been killed; 0% means that none of the larvae have been killed.

[2] = reversed-phase HPLC column (C 18)
[3] = Cooperia curticei, 120 h, read-out: efficacy (kill)

SMILES: O=C(Nc1ccn(-c2ccccc2C(F)(F)F)n1)c1ccccc1I [Compound I-1-5]
log P [1]: 3.05 | efficacy (Boophilus microplus): 100%

SMILES: O=C(Nc1ccn(-c2ccccc2Cl)n1)c1ccccc1Br [Compound I-1-32]
log P [1]: 2.83 | efficacy (Boophilus microplus): 80%

SMILES: N#Cc1c(-c2ccc(F)cc2)ccnc1-n1ccc(NC(=O)c2ccccc2C(F)(F)F)n1 [Compound I-1-641, N-{1-[3-Cyano-4-(4-fluorophenyl)pyridin-2-yl]-1H-pyrazol-3-yl}-2-(trifluoromethyl)benzamide]
chromatographic logP [1, 2]: 3.41 | pest or weed control at 20 ppm (Meloidogyne incognita): 90%

SMILES: O=C(Nc1ccn(-c2c(F)cccc2F)n1)c1cccnc1Br [Compound I-1-96]
log P [1]: 1.97 | efficacy (Boophilus microplus): 100%

SMILES: O=C(NC1=NN(c2c(F)cccc2F)CC1)c1ccccc1Br [Compound I-4-2, 2-Bromo-N-[1-(2,6-difluorophenyl)-4,5-dihydro-1H-pyrazol-3-yl]benzamide]
chromatographic logP [1, 2]: 2.8 | pest or weed control at 500 g/ha (Phaedon cochleariae): 100%

SMILES: Cc1cc(NC(=O)c2cccnc2Br)nn1-c1ccc(F)cc1F [Compound I-1-210]
log P [1]: 2.89 | efficacy in % (spider mites; application rate of 500 g/ha): 95%

SMILES: O=C(Nc1ccn(-c2cccc(F)c2F)n1)c1ccccc1I [Compound I-1-190]
log P [1]: 3.09 | nematicidal effect (formation of galls) (Meloidogyne incognita): 90%

SMILES: O=C(Nc1ccn(-c2c(F)cccc2F)n1)c1sccc1C(F)(F)F [Compound I-1-284]
log P [1]: 2.82 | efficacy (kill) (Cooperia curticei; application rate 4 ppm): 80%

SMILES: O=C(Nc1ccn(-c2ncc(Cl)cc2Cl)n1)c1ccccc1C(F)(F)F [Compound I-1-428]
log P [1]: 3.05 | efficacy in % (spider mites; application rate of 500 g/ha): 95%

SMILES: O=C(Nc1ccn(-c2ccccc2Cl)n1)c1ccccc1I [Compound I-1-33]
log P [1]: 2.95 | efficacy (Boophilus microplus): 100%

SMILES: O=C(Nc1ccn(-c2c(Cl)cccc2Cl)n1)c1ccccc1Cl [Compound I-1-121]
log P [1]: 2.84 | efficacy (kill) (Cooperia curticei; application rate 100 ppm): 80%

SMILES: O=C(Nc1cnn(-c2c(F)cccc2F)n1)c1ccccc1C(F)(F)F [Compound I-2-35, N-[2-(2,6-Difluorophenyl)-2H-1,2,3-triazol-4-yl]-2-(trifluoromethyl)benzamide]
chromatographic logP [1]: 2.8 | pest or weed control at 20 ppm (Meloidogyne incognita): 100% | pest or weed control at 500 g/ha (Phaedon cochleariae): 100% | pest or weed control at 20 ppm (Cooperia curticei; [3]): 100%

SMILES: O=C(Nc1ccn(-c2c(F)cccc2F)n1)c1cccnc1C(F)F [Compound I-1-248]
log P [1]: 1.99 | efficacy in % (spider mites; application rate of 500 g/ha): 80%

SMILES: CCN(C(=O)c1ccccc1Cl)c1ccn(-c2ccccc2Cl)n1 [Compound I-1-22]
log P [1]: 3.41 | efficacy (kill) (Cooperia curticei; application rate 100 ppm): 80%

SMILES: Cn1nc(C(F)(F)F)c(C(=O)Nc2ccn(-c3cc(F)ccc3F)n2)c1F [Compound I-1-72, N-[1-(2,5-Difluorophenyl)-1H-pyrazol-3-yl]-5-fluoro-1-methyl-3-(trifluoromethyl)-1H-pyrazole-4-carboxamide]
chromatographic logP [1, 2]: 2.93 | pest or weed control at 500 g/ha (Phaedon cochleariae): 100%

SMILES: N#Cc1cccnc1-n1ccc(NC(=O)c2ccccc2C(F)(F)F)n1 [Compound I-1-575, N-[1-(3-Cyanopyridin-2-yl)-1H-pyrazol-3-yl]-2-(trifluoromethyl)benzamide]
chromatographic logP [1, 2]: 2.55 | pest or weed control at 20 ppm (Meloidogyne incognita): 100% | pest or weed control at 20 ppm (Cooperia curticei; [3]): 100%

SMILES: O=C(Nc1nn(-c2ccccc2Cl)cc1Br)c1ccccc1C(F)(F)F [Compound I-1-16, N-[4-Bromo-1-(2-chlorophenyl)-1H-pyrazol-3-yl]-2-(trifluoromethyl)benzamide]
chromatographic logP [1, 2]: 3.11 | pest or weed control at 500 g/ha (Phaedon cochleariae): 83%

SMILES: N#Cc1nccnc1-n1ccc(NC(=O)c2ccccc2C(F)(F)F)n1 [Compound I-1-574, N-[1-(3-Cyanopyrazin-2-yl)-1H-pyrazol-3-yl]-2-(trifluoromethyl)benzamide]
chromatographic logP [1, 2]: 2.47 | pest or weed control at 20 ppm (Meloidogyne incognita): 100%

SMILES: O=C(Nc1ccn(-c2c(F)cc(F)c[n+]2[O-])n1)c1ccccc1C(F)(F)F [Compound I-1-438, N-[1-(3,5-Difluoro-1-oxidopyridin-2-yl)-1H-pyrazol-3-yl]-2-(trifluoromethyl)benzamide]
chromatographic logP [1, 2]: 1.69 | pest or weed control at 20 ppm (Meloidogyne incognita): 90%

SMILES: O=C(Nc1ccn(-c2ncc(F)cc2F)n1)c1c(F)cccc1F [Compound I-1-146, N-[1-(3,5-Difluoropyridin-2-yl)-1H-pyrazol-3-yl]-2,6-difluorobenzamide]
chromatographic logP [1, 2]: 2.19 | pest or weed control at 20 ppm (Meloidogyne incognita): 100% | pest or weed control at 100 ppm (Cooperia curticei; [3]): 100%

SMILES: Cc1ccccc1-n1ccc(NC(=O)c2ccccc2Br)n1 [Compound I-1-1, 2-BromoN-[1-(2-methylphenyl)-1H-pyrazol-3-yl]benzamide]
chromatographic logP [1, 2]: 2.79 | pest or weed control at 500 g/ha (Phaedon cochleariae): 100%

SMILES: O=C(Nc1ccn(-c2ccccc2Br)n1)c1ccccc1I [Compound I-1-53]
log P [1]: 3.07 | efficacy (Boophilus microplus): 90%

More lines, main results first:

log P [1]: 2.88
SMILES: O=C(Nc1ccn(-c2ccc(F)cn2)n1)c1ccccc1C(F)(F)F [Compound I-1-596]
efficacy in % (spider mites; application rate of 500 g/ha): 95%

log P [1]: 2.46
SMILES: Cc1nn(C)c(Cl)c1C(=O)Nc1ccn(-c2ccccc2Cl)n1 [Compound I-1-48]
efficacy (Boophilus microplus): 100%

log P [1]: 3.68
SMILES: O=C(c1ccccc1C(F)(F)F)N(CC1CC1)c1ccn(-c2c(F)cccc2F)n1 [Compound I-1-258]
efficacy in % (spider mites; application rate of 500 g/ha): 95%

chromatographic logP [1, 2]: 2.84
SMILES: CCOc1cccc(F)c1-n1ccc(NC(=O)c2ccccc2Cl)n1 [Compound I-1-117, 2-Chloro-N-[1-(2-ethoxy-6-fluorophenyl)-1H-pyrazol-3-yl]benzamide]
pest or weed control at 20 ppm (Meloidogyne incognita): 100% | pest or weed control at 500 g/ha (Phaedon cochleariae): 100%

chromatographic logP [1, 2]: 3.04
SMILES: O=C(Nc1ccn(-c2c(Cl)cccc2Cl)n1)c1ccccc1I [Compound I-1-123, N-[1-(2,6-Dichlorophenyl)-1H-pyrazol-3-yl]-2-iodobenzamide]
pest or weed control at 500 g/ha (Phaedon cochleariae): 100%

log P [1]: 2.91
SMILES: O=C(Nc1ccn(-c2ccc(F)cc2F)n1)c1ccccc1Cl [Compound I-1-211]
efficacy (kill) (Cooperia curticei; application rate 100 ppm): 80%

log P [1]: 3.28
SMILES: O=C(Nc1ccn(-c2ccccc2Cl)n1)c1ccccc1OC(F)(F)F [Compound I-1-18]
efficacy in % (spider mites; application rate of 500 g/ha): 80%

log P [1]: 2.19
SMILES: O=C(Nc1ccn(-c2ccccc2Cl)n1)c1cccnc1Cl [Compound I-1-43]
efficacy in % (spider mites; application rate of 100 g/ha): 90%

chromatographic logP [1, 2]: 3.14
SMILES: CN(C(=O)c1ccccc1Cl)c1ccn(-c2ccccc2Cl)n1 [Compound I-1-21, 2-Chloro-N-[1-(2-chlorophenyl)-1H-pyrazol-3-yl]-N-methylbenzamide]
pest or weed control at 500 g/ha (Phaedon cochleariae): 100%

log P [1]: 2.93
SMILES: O=C(Nc1cnn(-c2ccccc2Br)n1)c1ccccc1Cl [Compound I-2-7]
efficacy (kill) (Cooperia curticei; application rate 4 ppm): 80%

log P [1]: 3.37
SMILES: O=C(Nc1ccn(-c2cccc(Cl)c2F)n1)c1ccccc1C(F)(F)F [Compound I-1-555]
efficacy (kill) (Cooperia curticei; application rate 4 ppm): 90%

chromatographic logP [1, 2]: 3.06
SMILES: O=C(Nc1nn(-c2ccccc2Cl)cc1Cl)c1ccccc1C(F)(F)F [Compound I-1-15, N-[4-Chloro-1-(2-chlorophenyl)-1H-pyrazol-3-yl]-2-(trifluoromethyl)benzamide]
pest or weed control at 500 g/ha (Phaedon cochleariae): 100%

chromatographic logP [1, 2]: 2.63
SMILES: Cc1cccc(C)c1-n1ccc(NC(=O)c2ccccc2Cl)n1 [Compound I-1-61, 2-Chloro-N-[1-(2,6-dimethylphenyl)-1H-pyrazol-3-yl]benzamide]
pest or weed control at 500 g/ha (Phaedon cochleariae): 100%

log P [1]: 2.23
SMILES: O=C(Nc1ccn(-c2ncccc2Cl)n1)c1ccccc1Br [Compound I-1-137]
nematicidal effect (formation of galls) (Meloidogyne incognita): 80%

log P [1]: 2.67
SMILES: O=C(Nc1ccn(-c2c(F)cccc2F)n1)c1ccccc1I [Compound I-1-83]
efficacy (Boophilus microplus): 100%
